Laboratory results as given in patent EP3685668B1, “COMPOSITION COMPRISING ACIBENZOLAR-S-METHYL AS EFFECTIVE INGREDIENT FOR CONTROLLING BURSAPHELENCHUS XYLOPHILUS DISEASE AND METHOD FOR CONTROLLING BURSAPHELENCHUS XYLOPHILUS USING SAME” (Industry Foundation of Chonnam National University, priority 2017, dated 2019).

Experiments:
[1] = test system: Antipeptide; experiment: qRT-PCR expression of induced resistance gene in pine tree callus; format: cell-based; conditions: 200 µg/mℓ
Procedure: (§1) For in vitro analysis of induced resistance, the expression of PR genes and other plant defense-related genes was determined, which are evolved in various defense mechanisms including induced resistance. The primers of sixteen induced resistance-related genes of pine tree used in this invention were listed in the below and elongation factor_1 alpha were used as a reference gene. [Table 4] The primer list of defense resistance-related genes
(§2) After the treatment with 200 µg / mℓ of candidates of the selected induced resistance material, expression of the induced resistance-related gene in pine callus was determined by qRT-PCR using the primer pairs of defense resistance-related genes in Table 4. As a candidate group of an induced resistance material in pine tree, acibenzolar-S-methyl (ASM), TDL (Tiadinil), ITL (Isotianil), PBZ (Probenzole), AZO (Azoxystrobin), VMA (Validamycin A), MeJA (Methyl jasmonate), BABA (DL-3-aminobutyric acid), 2,3-BDO (2,3-Butanediol), GABA (r-Aminobutyric acid), glucan (Glucan), ER (Ergosterol), and AZA (Azelaic acid) were used. For the in vitro analysis of the expression of induced resistance gene in pine callus, the selected induced resistance materials were applied with 500 µℓ of LM liquid medium on a surface of pine tree callus (100 mg) in 12-well microplate to give final concentration of 200 µg/mℓ. Then, the callus surface was sufficiently reacted for 24 hours with the candidate of pine tree induced resistance material by shaking at 50 rpm in a 25 °C shaking incubator under dark condition. RNAs were extracted from the callus after completion of the reaction with an induced resistance material, followed by synthesis of cDNAs. Then, by carrying out qRT-PCR, the expression of induced resistance genes was determined. [Table 5] Expression of induced resistance gene in pine tree callus by TDL, PBZ, ASM, ITL, AZO, VMA, glucan, and AZA
(§3) Based on the results of assay using young plants and gene expression by selected induce resistance materials, it seemed that acibenzolar-S-methyl had the most excellent effect. Thus, the following tests were carried out using acibenzolar-S-methyl only. Expression of the induced resistance genes at different culture time after the chemical treatment was examined. For the in vitro assay, LM medium containing pine tree callus was treated with acibenzolar-S-methyl at concentration of 200 µg / mℓ, followed by reaction for 1 day, 7 days, or 14 days in a 25°C shaking incubator under dark condition. RNAs were extracted from the callus after the reaction followed by synthesis of cDNAs. Then, by carrying out qRT-PCR, the expression of the induced resistance genes was determined. Depending on reaction time after the treatment, i.e., after 1 day, 7 days, or 14 days, the expression of the obtained induced resistance genes was examined. As a result of the in vitro callus assay depending on reaction time after the treatment with acibenzolar-S-methyl, the expression of the induced resistance-related genes is the highest at 1 day after the treatment with acibenzolar-S-methyl and gradually diminished over time, as it is shown in Table 7. In this regard, it is contemplated that the expression of genes acquired by acibenzolar-S-methyl is not maintained in highly expressed state until the pathogen invasion and just memorized with at minimum level so that the energy consumption by plant can be efficiently managed. [Table 7] Expression of induced resistance gene in pine tree callus by acibenzolar-S-methyl depending on reaction time
(§4) To have an in vitro assay according to different methods of treatment with acibenzolar-S-methyl, two separate treatment methods, i.e., surface treatment (spraying treatment) of pine tree callus and direct application of the induced resistance material to an LM medium containing pine tree callus, were performed. […]

[2] = test system: Heat shock 70; experiment: as above; format: cell-based; conditions: for Expression of induced resistance gene, Heat shock 70: 24 hours
Procedure: as §1, §2, §3, §4

[3] = test system: PR_10 family; experiment: as above; format: cell-based; conditions: for Expression of induced resistance gene, PR_10 family: 24 hours
Procedure: as §1, §2, §3, §4

[4] = test system: PR_4 family; experiment: as above; format: cell-based; conditions: for Expression of induced resistance gene, PR_4 family: 24 hours
Procedure: as §1, §2, §3, §4

[5] = test system: PR_3 family class 4; experiment: as above; format: cell-based; conditions: for Expression of induced resistance gene, PR_3 family class 4: 24 hours
Procedure: as §1, §2, §3, §4

[6] = test system: PR_1b family; experiment: as above; format: cell-based; conditions: 200 µg/mℓ; for Expression of induced resistance gene, PR_1b family: 24 hours
Procedure: as §1, §2, §3, §4

[7] = test system: Hydroxyproline; experiment: as above; format: cell-based; conditions: for Expression of induced resistance gene, Hydroxyproline: 24 hours
Procedure: as §1, §2, §3, §4

[8] = test system: PR_2 family; experiment: as above; format: cell-based; conditions: concentration series, 2 µg/mℓ
[9] = test system: induced resistance-related genes; experiment: qRT-PCR expression of induced resistance genes in pine tree callus, overall statement; format: cell-based; conditions: 200 µg/mℓ
Procedure: as §1, §2

[10] = test system: Bursaphelenchus xylophilus; experiment: In vitro nematicidal activity, 96-well microplate; conditions: after 3 days
Procedure: To test the nematicidal activity of acibenzolar-S-methyl, a suspension of Bursaphelenchus xylophilus was diluted in a 96-well microplate to have 50 worms/99 µℓ in each well and used for the treatment. […] Each treatment was repeated 3 times, and "A Pharm" (emamectin benzoate, 2.15%), which is a chemical pesticide, was used as a control group. After the treatment, the 96-well plate was kept in a plastic box having water-soaked wipes spread on the bottom to maintain 100% humidity, and, after covering the box with black cloth, the box was stored in a dark state with blockage of light. The observation was made after 3 days. […] [Table 2] Nematicidal activity of acibenzolar-S-methyl against Bursaphelenchus xylophilus

[11] = 200 µg/mℓ, Direct supplying as a medium component
[12] = concentration series, 200 µg/mℓ

CSC(=O)c1cccc2nnsc12 [ASM, acibenzolar-S-methyl]
Gene expression level, Antipeptide ([1]; After 1 day): 10.63 | Gene expression level, Antipeptide ([1]; After 7 days): 1.28 | Gene expression level, Antipeptide ([1]; After 14 days): 0.58 | Gene expression level, Antipeptide ([1]; concentration series): 5.352 | Expression of induced resistance gene, Heat shock 70 ([2]; 200 µg/mℓ): 1.75 | Expression of induced resistance gene, Heat shock 70 [2, 11]: 10.06 | Expression of induced resistance gene, Heat shock 70 ([2]; 200 µg/mℓ, Spraying): 1.75 | Gene expression level, Heat shock 70 ([2]; 200 µg/mℓ, After 1 day): 2.27 | Gene expression level, Heat shock 70 ([2]; 200 µg/mℓ, After 7 days): 0.97 | Gene expression level, Heat shock 70 ([2]; 200 µg/mℓ, After 14 days): 0.77 | Gene expression level, Heat shock 70 ([2]; concentration series, 20 µg/mℓ): 23.26 | Gene expression level, Heat shock 70 [2, 12]: 53.45 | Expression of induced resistance gene, PR_10 family ([3]; 200 µg/mℓ): 1.71 | Expression of induced resistance gene, PR_10 family [3, 11]: 10.63 | Expression of induced resistance gene, PR_10 family ([3]; 200 µg/mℓ, Spraying): 1.71 | Gene expression level, PR_10 family ([3]; 200 µg/mℓ, After 1 day): 8.57 | Gene expression level, PR_10 family ([3]; 200 µg/mℓ, After 7 days): 0.51 | Gene expression level, PR_10 family ([3]; 200 µg/mℓ, After 14 days): 0.64 | Gene expression level, PR_10 family ([3]; concentration series, 2 µg/mℓ): 0.8293 | Gene expression level, PR_10 family ([3]; concentration series, 20 µg/mℓ): 1.11 | Gene expression level, PR_10 family [3, 12]: 1.094 | Expression of induced resistance gene, PR_4 family ([4]; 200 µg/mℓ): 2.6 | Expression of induced resistance gene, PR_4 family [4, 11]: 5.46 | Expression of induced resistance gene, PR_4 family ([4]; 200 µg/mℓ, Spraying): 2.6 | Gene expression level, PR_4 family ([4]; 200 µg/mℓ, After 1 day): 5.46 | Gene expression level, PR_4 family ([4]; 200 µg/mℓ, After 7 days): 0.74 | Gene expression level, PR_4 family ([4]; 200 µg/mℓ, After 14 days): 0.2 | Gene expression level, PR_4 family ([4]; concentration series, 2 µg/mℓ): 2.25 | Gene expression level, PR_4 family ([4]; concentration series, 20 µg/mℓ): 2.056 | Gene expression level, PR_4 family [4, 12]: 1.24 | Expression of induced resistance gene, PR_3 family class 4 ([5]; 200 µg/mℓ): 3.86 | Expression of induced resistance gene, PR_3 family class 4 [5, 11]: 11.96 | Expression of induced resistance gene, PR_3 family class 4 ([5]; 200 µg/mℓ, Spraying): 3.86 | Gene expression level, PR_3 family class 4 ([5]; 200 µg/mℓ, After 1 day): 11.96 | Gene expression level, PR_3 family class 4 ([5]; 200 µg/mℓ, After 7 days): 7.67 | Gene expression level, PR_3 family class 4 ([5]; 200 µg/mℓ, After 14 days): 0.86 | Gene expression level, PR_3 family class 4 ([5]; concentration series, 2 µg/mℓ): 32.22 | Gene expression level, PR_3 family class 4 ([5]; concentration series, 20 µg/mℓ): 42.52 | Gene expression level, PR_3 family class 4 [5, 12]: 24.93 | Expression of induced resistance gene, PR_1b family [6]: 2 | Expression of induced resistance gene, PR_1b family ([6]; Direct supplying as a medium component): 6.28 | Expression of induced resistance gene, PR_1b family ([6]; Spraying): 2 | Gene expression level, PR_1b family ([6]; After 1 day): 6.28 | Gene expression level, PR_1b family ([6]; After 7 days): 0.72 | Gene expression level, PR_1b family ([6]; After 14 days): 0.4 | Gene expression level, PR_1b family ([6]; concentration series): 0.9395 | Expression of induced resistance gene, Hydroxyproline ([7]; 200 µg/mℓ): 1.79 | Expression of induced resistance gene, Hydroxyproline [7, 11]: 7.89 | Expression of induced resistance gene, Hydroxyproline ([7]; 200 µg/mℓ, Spraying): 1.79 | Gene expression level, Hydroxyproline ([7]; 200 µg/mℓ, After 1 day): 10.06 | Gene expression level, Hydroxyproline ([7]; 200 µg/mℓ, After 7 days): 1.2 | Gene expression level, Hydroxyproline ([7]; 200 µg/mℓ, After 14 days): 0.32 | Gene expression level, Hydroxyproline ([7]; concentration series, 2 µg/mℓ): 3.138 | Gene expression level, Hydroxyproline ([7]; concentration series, 20 µg/mℓ): 4.438 | Gene expression level, Hydroxyproline [7, 12]: 4.627 | Gene expression level, PR_2 family [8]: 1.828 | expression of induced resistance-related genes is induced overall [9]: ≥ 2 times | expression of most PR genes was enhanced [9]: ≥ 2 times | Nematicidal rate (%) ([10]; 33.3 µg/mℓ): 1.72% | Nematicidal rate (%) ([10]; 100 µg/mℓ): 1.94% | Nematicidal rate (%) ([10]; 300 µg/mℓ): 2.24% | nematicidal activity ([10]; second stage larvae, 300, 100 or 33.3 µg/mℓ): no nematicidal activity
